This is an account of results in patent US10870647B2, “Imidazopyridine derivative, method for preparing same, and pharmaceutical composition containing same as active ingredient for preventing or treating cancer” (DAEGU-GYEONGBUK MEDICAL INNOVATION FOUNDATION, priority 2016, dated 2020).

pIC50, pKd: −log10 of the molar value.

In one test the target is T1, RET(V804M) (Homo sapiens, UniProt P07949, V804M).
T1 construct: purchased Reaction Biology Co
Description: Enzyme inhibitory activity (Kd), Reaction Biology Co. Format: binding.

The next test concerns the target T2, FGFR4 (Homo sapiens, UniProt P22455).
T2 construct: purchased Reaction Biology Co
The test is described as above. Format: binding.

A further test deals with T3, RET (Homo sapiens, UniProt P07949).
T3 construct: purchased Reaction Biology Co
Described as above. Format: binding.

The target of test [1] is T4, scanMAX Kinase assay panel (Homo sapiens, UniProt Q9BYT3).
T4 construct: purchased DiscoverX
Description: Kinase selectivity, scanMAX Kinase assay panel (DiscoverX), % control at 1 uM. The following applies: STK33; 1 uM; read-out: Percent Control (%). Type of test: binding. Here is the method: (§1) The following experiment was performed to evaluate the inhibitory activity of the compound of the present invention on more enzymes.
(§2) Particularly, among the compounds of the present invention, the compounds of Example 1, Example 12 and Example 78 were selected and assigned to DiscoverX to measure the kinase selectivity. The experiment was performed by using scanMAX™ Kinase assay panel.
(§3) At this time, the concentration of the drug to be treated to the enzyme was adjusted to 1 uM in DMSO, and the control percentage (% control) was determined according to the following Equation 1. [Example Compound−Positive Control/Negative Control−Positive Control]×100 [Equation 1]
(§4) The enzyme selectivity of the compound of the present invention was judged to be active for the enzyme if the % control was <35 (i.e. less than 35%) for each enzyme.

Test [2] concerns the target T5, scanMAX Kinase assay panel (Homo sapiens, UniProt P49336).
T5 construct: purchased DiscoverX
Described as above. Format: binding. The following applies: CDK8; 1 uM; read-out: Percent Control (%). The method, then:
as §1, §2, §3, §4

The target in test [3] is T6, scanMAX Kinase assay panel (Homo sapiens, UniProt O60674).
T6 construct: purchased DiscoverX
The description is as above. Format: binding. The following applies: JAK2 (JH1domain-catalytic); 1 uM; read-out: Percent Control (%). The method, then: as §1, §2, §3, §4

The target in test [4] is T7, scanMAX Kinase assay panel (Homo sapiens, UniProt Q13557).
T7 construct: purchased DiscoverX
The test is described as above. Format: binding. The following applies: CAMK2D; 1 uM; read-out: Percent Control (%). The method, then:
as §1, §2, §3, §4

Test [5] has as its target T8, scanMAX Kinase assay panel (Homo sapiens, UniProt Q16584).
T8 construct: purchased DiscoverX
Described as above. Format: binding. The following applies: MLK3; 1 uM; read-out: Percent Control (%). Here is the method:
as §1, §2, §3, §4

Test [6] concerns the target T9, scanMAX Kinase assay panel (Homo sapiens, UniProt P27361).
T9 construct: purchased DiscoverX
The description is as above. Type of test: binding. The following applies: ERK1; 1 uM; read-out: Percent Control (%). Here is the method: as §1, §2, §3, §4

Test [7] concerns the target T10, scanMAX Kinase assay panel (Homo sapiens, UniProt O43353).
T10 construct: purchased DiscoverX
The test is described as above. Type of test: binding. The following applies: RIPK2; 1 uM; read-out: Percent Control (%). Here is the method: as §1, §2, §3, §4

Test [8] has as its target T11, scanMAX Kinase assay panel (Homo sapiens, UniProt Q13131).
T11 construct: purchased DiscoverX
The test is described as above. Type of test: binding. The following applies: AMPK-alpha1; 1 uM; read-out: Percent Control (%). Here is the method: as §1, §2, §3, §4

The test system of another test is A375. The experiment in a line: Cancer cell proliferation inhibition, CCK-8, 72 hours. Format: cell-based. The following applies: Homo sapiens, A-375, 72 h. Summed up:
(§5)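 A375 cells (2×10^3/well) attached overnight, then received 9 three-fold dilutions (0.0015-10 μM). K562 and Ba/F3-T315I (1×10^4/well) were given 9-point series (3-fold and 5-fold respectively), final 0-10 μM. After 72 h at 37°C, CCK-8 was added for 2 h; blank-subtracted OD450 gave IC50.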

The next test has as its target T12, T315I (Ba/F3) (Homo sapiens, UniProt P00519, T315I, cells depend on it).
T12 construct: fused on or other part: P11274 (Breakpoint cluster region protein)
Described as above. The following applies: read-out: T315I (Ba/F3) IC50. Type of test: cell-based. Summed up:
as §5

The subject of another test is K562. The test is described as above. Type of test: cell-based. The following applies: Homo sapiens, K562, 72 h. The essentials: as §5

T10 sequence (O43353 whole entry): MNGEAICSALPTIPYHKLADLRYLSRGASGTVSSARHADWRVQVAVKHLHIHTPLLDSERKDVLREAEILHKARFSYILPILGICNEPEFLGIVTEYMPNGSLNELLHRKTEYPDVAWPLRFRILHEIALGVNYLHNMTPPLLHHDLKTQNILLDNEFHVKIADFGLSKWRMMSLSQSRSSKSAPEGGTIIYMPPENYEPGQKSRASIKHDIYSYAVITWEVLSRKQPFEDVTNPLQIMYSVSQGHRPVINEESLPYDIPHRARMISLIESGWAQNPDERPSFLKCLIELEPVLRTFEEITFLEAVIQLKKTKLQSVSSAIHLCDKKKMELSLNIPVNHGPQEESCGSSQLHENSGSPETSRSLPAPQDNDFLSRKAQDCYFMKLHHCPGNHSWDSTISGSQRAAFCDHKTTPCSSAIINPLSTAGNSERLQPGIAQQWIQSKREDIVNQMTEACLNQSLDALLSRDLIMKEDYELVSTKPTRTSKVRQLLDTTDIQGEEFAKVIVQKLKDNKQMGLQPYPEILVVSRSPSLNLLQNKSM
T2 sequence (P22455 22-802): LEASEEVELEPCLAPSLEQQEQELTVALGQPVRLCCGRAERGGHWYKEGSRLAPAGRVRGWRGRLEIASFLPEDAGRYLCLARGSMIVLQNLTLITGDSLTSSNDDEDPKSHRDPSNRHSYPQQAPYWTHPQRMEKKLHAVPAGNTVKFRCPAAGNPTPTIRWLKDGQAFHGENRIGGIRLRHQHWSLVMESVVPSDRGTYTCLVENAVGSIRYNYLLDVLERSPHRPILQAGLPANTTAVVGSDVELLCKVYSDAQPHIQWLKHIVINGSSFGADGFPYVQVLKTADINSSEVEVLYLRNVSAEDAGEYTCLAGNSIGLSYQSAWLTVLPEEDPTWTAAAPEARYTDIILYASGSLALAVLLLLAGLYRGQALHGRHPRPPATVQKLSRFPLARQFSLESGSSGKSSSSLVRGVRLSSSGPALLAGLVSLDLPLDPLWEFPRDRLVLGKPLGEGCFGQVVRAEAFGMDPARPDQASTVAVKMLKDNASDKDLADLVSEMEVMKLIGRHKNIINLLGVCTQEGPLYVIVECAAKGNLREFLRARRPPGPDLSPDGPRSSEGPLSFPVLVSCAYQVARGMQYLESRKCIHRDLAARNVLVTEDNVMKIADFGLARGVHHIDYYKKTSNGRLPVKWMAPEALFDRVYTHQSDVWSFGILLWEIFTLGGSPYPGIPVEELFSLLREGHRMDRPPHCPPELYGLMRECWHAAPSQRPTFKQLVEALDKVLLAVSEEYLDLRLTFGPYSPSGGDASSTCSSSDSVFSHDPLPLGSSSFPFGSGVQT
T6 sequence (O60674 whole entry): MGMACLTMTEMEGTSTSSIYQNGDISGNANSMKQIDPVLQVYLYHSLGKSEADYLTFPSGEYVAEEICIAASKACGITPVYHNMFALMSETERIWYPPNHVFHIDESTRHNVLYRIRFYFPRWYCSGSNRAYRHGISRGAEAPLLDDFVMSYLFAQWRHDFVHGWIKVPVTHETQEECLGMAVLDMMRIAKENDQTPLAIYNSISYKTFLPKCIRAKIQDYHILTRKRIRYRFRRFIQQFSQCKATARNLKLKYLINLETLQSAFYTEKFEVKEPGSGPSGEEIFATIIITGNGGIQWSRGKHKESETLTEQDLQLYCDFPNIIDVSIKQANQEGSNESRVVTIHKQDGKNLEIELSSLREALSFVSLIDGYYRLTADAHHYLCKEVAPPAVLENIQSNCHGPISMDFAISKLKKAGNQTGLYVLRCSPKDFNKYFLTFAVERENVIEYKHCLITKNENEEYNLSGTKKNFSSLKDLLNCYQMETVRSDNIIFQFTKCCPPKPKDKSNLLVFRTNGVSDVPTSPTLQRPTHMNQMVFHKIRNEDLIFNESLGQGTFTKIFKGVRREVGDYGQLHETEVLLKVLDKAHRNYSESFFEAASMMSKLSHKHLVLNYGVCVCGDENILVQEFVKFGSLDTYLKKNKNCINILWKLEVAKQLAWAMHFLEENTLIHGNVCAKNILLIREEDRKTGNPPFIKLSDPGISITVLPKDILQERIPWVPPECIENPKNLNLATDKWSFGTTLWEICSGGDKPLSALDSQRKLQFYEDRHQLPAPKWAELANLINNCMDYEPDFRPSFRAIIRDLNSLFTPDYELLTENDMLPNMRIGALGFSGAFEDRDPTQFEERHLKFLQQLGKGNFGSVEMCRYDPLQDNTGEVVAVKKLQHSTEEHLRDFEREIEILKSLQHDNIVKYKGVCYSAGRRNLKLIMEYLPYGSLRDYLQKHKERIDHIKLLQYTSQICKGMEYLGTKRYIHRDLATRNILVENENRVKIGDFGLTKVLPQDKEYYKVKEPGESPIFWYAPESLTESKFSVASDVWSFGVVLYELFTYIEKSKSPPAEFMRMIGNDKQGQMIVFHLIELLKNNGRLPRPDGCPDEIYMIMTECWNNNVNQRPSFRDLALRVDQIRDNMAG
T4 sequence (Q9BYT3 whole entry): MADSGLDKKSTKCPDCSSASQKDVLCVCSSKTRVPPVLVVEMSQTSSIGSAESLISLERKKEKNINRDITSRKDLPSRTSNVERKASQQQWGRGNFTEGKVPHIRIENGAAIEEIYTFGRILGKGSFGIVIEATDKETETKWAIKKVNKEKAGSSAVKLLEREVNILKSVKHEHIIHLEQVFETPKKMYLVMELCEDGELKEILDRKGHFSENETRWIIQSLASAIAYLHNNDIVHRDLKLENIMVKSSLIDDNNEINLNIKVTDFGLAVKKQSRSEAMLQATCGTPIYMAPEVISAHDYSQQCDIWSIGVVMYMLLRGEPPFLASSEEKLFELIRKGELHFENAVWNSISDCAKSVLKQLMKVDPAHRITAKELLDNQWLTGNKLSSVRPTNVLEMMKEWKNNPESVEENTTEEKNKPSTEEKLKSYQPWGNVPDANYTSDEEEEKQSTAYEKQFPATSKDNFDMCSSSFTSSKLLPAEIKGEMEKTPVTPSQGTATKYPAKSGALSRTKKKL
T1 sequence (P07949 29-1114 V804M): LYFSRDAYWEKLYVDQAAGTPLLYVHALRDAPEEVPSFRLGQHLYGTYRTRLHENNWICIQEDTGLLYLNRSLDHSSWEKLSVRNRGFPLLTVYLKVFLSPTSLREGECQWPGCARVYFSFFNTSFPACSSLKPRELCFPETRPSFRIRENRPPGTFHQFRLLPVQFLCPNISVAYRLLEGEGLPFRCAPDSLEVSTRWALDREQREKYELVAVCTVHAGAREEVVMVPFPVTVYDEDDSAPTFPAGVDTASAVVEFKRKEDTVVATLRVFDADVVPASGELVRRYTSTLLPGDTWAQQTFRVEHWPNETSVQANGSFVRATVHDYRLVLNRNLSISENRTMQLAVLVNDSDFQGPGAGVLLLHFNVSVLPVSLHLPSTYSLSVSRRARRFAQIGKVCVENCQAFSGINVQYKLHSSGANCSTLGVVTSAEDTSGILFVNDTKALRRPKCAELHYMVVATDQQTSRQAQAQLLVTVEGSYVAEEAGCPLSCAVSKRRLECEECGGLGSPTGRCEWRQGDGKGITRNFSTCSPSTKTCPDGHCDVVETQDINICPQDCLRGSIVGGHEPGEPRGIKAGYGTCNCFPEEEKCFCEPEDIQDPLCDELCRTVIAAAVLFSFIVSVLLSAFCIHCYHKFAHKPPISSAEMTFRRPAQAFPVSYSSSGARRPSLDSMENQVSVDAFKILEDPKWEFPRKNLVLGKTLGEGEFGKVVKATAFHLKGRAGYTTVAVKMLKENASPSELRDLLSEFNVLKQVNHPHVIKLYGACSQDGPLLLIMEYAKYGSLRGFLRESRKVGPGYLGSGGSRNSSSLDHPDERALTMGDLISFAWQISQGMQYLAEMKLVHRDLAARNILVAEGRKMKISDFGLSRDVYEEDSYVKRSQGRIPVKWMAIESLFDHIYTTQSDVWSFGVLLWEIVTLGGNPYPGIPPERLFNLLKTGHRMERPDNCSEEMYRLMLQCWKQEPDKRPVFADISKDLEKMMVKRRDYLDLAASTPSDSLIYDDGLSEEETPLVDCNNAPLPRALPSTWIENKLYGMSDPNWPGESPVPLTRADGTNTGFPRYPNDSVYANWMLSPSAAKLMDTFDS
T5 sequence (P49336 whole entry): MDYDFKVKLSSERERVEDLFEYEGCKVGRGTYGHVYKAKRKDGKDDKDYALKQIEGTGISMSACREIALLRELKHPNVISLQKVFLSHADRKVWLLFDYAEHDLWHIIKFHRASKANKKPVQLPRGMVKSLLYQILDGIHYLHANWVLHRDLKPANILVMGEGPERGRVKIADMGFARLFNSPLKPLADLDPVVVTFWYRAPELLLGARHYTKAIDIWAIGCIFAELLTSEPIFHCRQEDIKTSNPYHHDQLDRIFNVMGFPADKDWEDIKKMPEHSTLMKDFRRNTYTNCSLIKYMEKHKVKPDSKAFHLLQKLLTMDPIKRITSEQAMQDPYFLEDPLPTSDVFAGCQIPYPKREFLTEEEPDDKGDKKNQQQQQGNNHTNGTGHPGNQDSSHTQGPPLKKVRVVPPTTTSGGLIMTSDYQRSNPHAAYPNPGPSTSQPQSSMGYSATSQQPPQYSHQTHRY
T11 sequence (Q13131 whole entry): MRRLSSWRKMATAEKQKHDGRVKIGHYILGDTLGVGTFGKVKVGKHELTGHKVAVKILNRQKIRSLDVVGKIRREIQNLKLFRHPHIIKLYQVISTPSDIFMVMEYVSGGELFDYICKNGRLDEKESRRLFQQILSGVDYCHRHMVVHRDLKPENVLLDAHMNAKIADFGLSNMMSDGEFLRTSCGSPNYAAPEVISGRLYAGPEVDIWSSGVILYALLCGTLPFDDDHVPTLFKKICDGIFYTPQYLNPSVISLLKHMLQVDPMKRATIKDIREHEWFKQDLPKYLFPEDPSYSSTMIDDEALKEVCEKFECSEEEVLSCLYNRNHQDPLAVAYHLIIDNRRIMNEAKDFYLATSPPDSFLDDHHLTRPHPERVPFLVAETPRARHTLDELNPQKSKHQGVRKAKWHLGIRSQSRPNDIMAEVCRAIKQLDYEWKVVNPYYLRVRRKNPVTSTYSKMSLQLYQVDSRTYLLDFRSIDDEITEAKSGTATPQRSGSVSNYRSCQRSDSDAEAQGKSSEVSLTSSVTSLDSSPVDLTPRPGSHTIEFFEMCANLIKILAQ

Take `Cc1ccc(C(=O)Nc2ccc(CN3CCN(C)CC3)c(C(F)(F)F)c2)cc1C#Cc1cnc2c(Nc3cnn(C)c3)cccn12` [Example 1, 4-methyl-3-((8-((1-methyl-1H-pyrazol-4-yl)amino)imidazo[1,2-a]pyridin-3-yl)ethynyl)-N-(4-((4-methylpiperazin-1-yl)methyl)-3-(trifluoromethyl)phenyl)benzamide]: the pKd on RET(V804M) was 7.96; on FGFR4, 7.25; at RET, 8.00. Besides, the remaining binding at 1 µM in test [1] was determined as 5%; in test [2] it was 4%; in [3] it was 7%; in test [4] it was 82%; in test [5], 1%; in [6], 87%. Also, the remaining binding at 1 µM in test [7] and in [8] was 7% in each case. For the same molecule, the pIC50 is 7.59 with A375 and greater than 9.00 in the test with K562. Besides, the GI50 at T315I (Ba/F3) stood at 26 nM.
In the case of `Cc1ccc(C(=O)Nc2cccc(C(F)(F)F)c2)cc1C#Cc1cnc2c(Nc3cnn(C4CCNCC4)c3)cccn12` [Example 11, 4-methyl-3-((8-((1-(piperidin-4-yl)-1H-pyrazol-4-yl)amino)imidazo[1,2-a]pyridin-3-yl)ethynyl)-N-(3-(trifluoromethyl)phenyl)benzamide], the pIC50 was 5.90 with A375 and greater than 9.00 in the test on K562. The GI50 at T315I (Ba/F3) came out at 6.34 nM.
Turning to `Cc1ccc(NC(=O)C2(C(=O)Nc3ccc(F)cc3)CC2)cc1C#Cc1cnc2c(Nc3cnn(C(C)C)c3)cccn12` [Example 78], the remaining binding at 1 µM in test [1] came to 100%; in test [2], 100%; in test [3] it was 98%; in test [4], 100%; in [5] it was 94%; in [6], 100%. Moreover, the remaining binding at 1 µM is 99% in test [7] and 100% in test [8]. Further, the results for the pIC50 in the test on A375 and in the test on K562 were 5.34 and 5.92, respectively. Moreover, on T315I (Ba/F3), the GI50 worked out at 3240 nM.
Turning to `Cc1cn(-c2cc(NC(=O)c3ccc(C)c(C#Cc4cnc5c(Nc6cnn(C)c6)cccn45)c3)cc(C(F)(F)F)c2)cn1` [Example 12, 4-methyl-N-(3-(4-methyl-1H-imidazol-1-yl)-5-(trifluoromethyl)phenyl)-3-((8-((1-methyl-1H-pyrazol-4-yl)amino)imidazo[1,2-a]pyridin-3-yl)ethynyl)benzamide], the pKd at RET(V804M) is 7.49; at FGFR4 it was 6.43; at RET, 7.60. The remaining binding at 1 µM in [1] stood at 40%; in test [2], 31%; in [3], 100%; in test [4], 78%; in [5] it was 14%; in test [6] it was 100%. The remaining binding at 1 µM in test [7] came to 22%; in [8], 74%. The results for the pIC50 in the test on A375 and in the test on K562 were 6.03 and greater than 9.00, respectively. The GI50 at T315I (Ba/F3) is 6.72 nM.
On to `CCN1CCN(Cc2ccc(NC(=O)c3ccc(C)c(C#Cc4cnc5c(Nc6cnn(C)c6)cccn45)c3)cc2C(F)(F)F)CC1` [Example 8, N-(4-((4-ethylpiperazin-1-yl)methyl)-3-(trifluoromethyl)phenyl)-4-methyl-3-((8-((1-methyl-1H-pyrazol-4-yl)amino)imidazo[1,2-a]pyridin-3-yl)ethynyl)benzamide], for which the pKd on RET(V804M) is 8.04; at FGFR4, 7.24; at RET, 8.12. The results for the pIC50 in the test with A375 and in the test on K562 were 7.28 and greater than 9.00, respectively. In addition, the GI50 on T315I (Ba/F3) came out at 32 nM.

Broadly, the pKd is the negative decadic logarithm of the Kd, by convention in mol/L. A lower pKd goes with a high Kd. What is called pIC50 is −log10 of the IC50, conventionally taken in molar units. Higher therefore signals a low IC50.
